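Tested at 5 concentrations; 48 h exposure; 96-well plates; endpoints linearly interpolated, else capped at highest concentration. TGI marks complete inhibition of growth.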 Active and inactive are the calls of the source. Rule as the data show it: active = GI50 below about 0.43 µM; inactive = the rest.
How the values were obtained:
Assay in all cases: DTP human tumour cell line panel, 48 h
786-0 renal = system: 786-0 renal
A549 NSCLC = system: A549 NSCLC
ACHN renal = system: ACHN renal
CAKI-1 renal = system: CAKI-1 renal
CCRF-CEM leukemia = system: CCRF-CEM leukemia
COLO 205 colon = system: COLO 205 colon
DLD-1 colon = system: DLD-1 colon
DMS 114 small cell lung = system: DMS 114 small cell lung
DMS 273 small cell lung = system: DMS 273 small cell lung
EKVX NSCLC = system: EKVX NSCLC
HCC-2998 colon = system: HCC-2998 colon
HCT-15 colon = system: HCT-15 colon
HL-60(TB) leukemia = system: HL-60(TB) leukemia
HOP-62 NSCLC = system: HOP-62 NSCLC
HOP-92 NSCLC = system: HOP-92 NSCLC
HT29 colon = system: HT29 colon
IGROV1 ovarian = system: IGROV1 ovarian
K-562 leukemia = system: K-562 leukemia
KM12 colon = system: KM12 colon
KM20L2 colon = system: KM20L2 colon
LOX IMVI melanoma = system: LOX IMVI melanoma
LXFL 529 NSCLC = system: LXFL 529 NSCLC
M14 melanoma = system: M14 melanoma
M19-MEL melanoma = system: M19-MEL melanoma
MALME-3M melanoma = system: MALME-3M melanoma
MOLT-4 leukemia = system: MOLT-4 leukemia
NCI-H226 lung = system: NCI-H226 lung
NCI-H23 lung = system: NCI-H23 lung
NCI-H460 lung = system: NCI-H460 lung
NCI-H522 lung = system: NCI-H522 lung
OVCAR-3 ovarian = system: OVCAR-3 ovarian
OVCAR-4 ovarian = system: OVCAR-4 ovarian
OVCAR-5 ovarian = system: OVCAR-5 ovarian
OVCAR-8 ovarian = system: OVCAR-8 ovarian
RPMI-8226 leukemia = system: RPMI-8226 leukemia
RXF 393 renal = system: RXF 393 renal
SF-268 CNS = system: SF-268 CNS
SF-295 CNS = system: SF-295 CNS
SF-539 CNS = system: SF-539 CNS
SK-MEL-2 melanoma = system: SK-MEL-2 melanoma
SK-OV-3 ovarian = system: SK-OV-3 ovarian
SN12C renal = system: SN12C renal
SNB-19 CNS = system: SNB-19 CNS
SNB-75 CNS = system: SNB-75 CNS
SNB-78 CNS = system: SNB-78 CNS
SR leukemia = system: SR leukemia
SW-620 colon = system: SW-620 colon
U251 CNS = system: U251 CNS
UACC-257 melanoma = system: UACC-257 melanoma
UACC-62 melanoma = system: UACC-62 melanoma
UO-31 renal = system: UO-31 renal
XF 498 CNS = system: XF 498 CNS
A498 renal = system: A498 renal
HCT-116 colon = system: HCT-116 colon
SK-MEL-28 melanoma = system: SK-MEL-28 melanoma
SK-MEL-5 melanoma = system: SK-MEL-5 melanoma
TK-10 renal = system: TK-10 renal

C=C1C(=O)O[C@@H]2C1C(OC(C)CCC)[C@@H](O)[C@@H](C)C(O)C1O[C@]1(C)[C@H]2O (some centres undefined)
outcome (786-0 renal): inactive | outcome (A549 NSCLC): inactive | outcome (ACHN renal): inactive | outcome (CAKI-1 renal): inactive | outcome (CCRF-CEM leukemia): inactive | outcome (COLO 205 colon): inactive | outcome (DLD-1 colon): inactive | outcome (DMS 114 small cell lung): inactive | outcome (DMS 273 small cell lung): inactive | outcome (EKVX NSCLC): inactive | outcome (HCC-2998 colon): inactive | outcome (HCT-15 colon): inactive | outcome (HL-60(TB) leukemia): inactive | outcome (HOP-62 NSCLC): inactive | outcome (HOP-92 NSCLC): inactive | outcome (HT29 colon): inactive | outcome (IGROV1 ovarian): inactive | outcome (K-562 leukemia): inactive | outcome (KM12 colon): inactive | outcome (KM20L2 colon): inactive | outcome (LOX IMVI melanoma): inactive | outcome (LXFL 529 NSCLC): inactive | outcome (M14 melanoma): inactive | outcome (M19-MEL melanoma): inactive | outcome (MALME-3M melanoma): inactive | outcome (MOLT-4 leukemia): inactive | outcome (NCI-H226 lung): inactive | outcome (NCI-H23 lung): inactive | outcome (NCI-H460 lung): inactive | outcome (NCI-H522 lung): inactive | outcome (OVCAR-3 ovarian): inactive | outcome (OVCAR-4 ovarian): inactive | outcome (OVCAR-5 ovarian): inactive | outcome (OVCAR-8 ovarian): inactive | outcome (RPMI-8226 leukemia): inactive | outcome (RXF 393 renal): inactive | outcome (SF-268 CNS): inactive | outcome (SF-295 CNS): inactive | outcome (SF-539 CNS): inactive | outcome (SK-MEL-2 melanoma): inactive | outcome (SK-OV-3 ovarian): inactive | outcome (SN12C renal): inactive | outcome (SNB-19 CNS): inactive | outcome (SNB-75 CNS): inactive | outcome (SNB-78 CNS): inactive | outcome (SR leukemia): inactive | outcome (SW-620 colon): inactive | outcome (U251 CNS): inactive | outcome (UACC-257 melanoma): inactive | outcome (UACC-62 melanoma): inactive | outcome (UO-31 renal): inactive | outcome (XF 498 CNS): inactive

Nc1ccc(C(=O)N/C(=C\c2cccc([N+](=O)[O-])c2)c2nc3ccccc3[nH]2)cc1
TGI (786-0 renal): > 100 µM | TGI (A498 renal): > 100 µM | TGI (A549 NSCLC): > 100 µM | TGI (ACHN renal): > 100 µM | TGI (CAKI-1 renal): > 100 µM | TGI (CCRF-CEM leukemia): > 100 µM | TGI (COLO 205 colon): > 100 µM | TGI (DLD-1 colon): > 100 µM | TGI (DMS 114 small cell lung): > 100 µM | TGI (DMS 273 small cell lung): > 100 µM | TGI (EKVX NSCLC): > 100 µM | TGI (HCC-2998 colon): > 100 µM | TGI (HCT-116 colon): > 100 µM | TGI (HCT-15 colon): > 100 µM | TGI (HL-60(TB) leukemia): > 100 µM | TGI (HOP-62 NSCLC): 67 µM | TGI (HOP-92 NSCLC): > 66.4 µM | TGI (HT29 colon): > 100 µM | TGI (IGROV1 ovarian): > 100 µM | TGI (K-562 leukemia): > 100 µM | TGI (KM12 colon): > 100 µM | TGI (KM20L2 colon): > 100 µM | TGI (LOX IMVI melanoma): > 100 µM | TGI (LXFL 529 NSCLC): > 100 µM | TGI (M14 melanoma): > 100 µM | TGI (M19-MEL melanoma): > 100 µM | TGI (MALME-3M melanoma): > 100 µM | TGI (MOLT-4 leukemia): > 100 µM | TGI (NCI-H226 lung): > 100 µM | TGI (NCI-H23 lung): > 100 µM | TGI (NCI-H460 lung): > 100 µM | TGI (NCI-H522 lung): 98.8 µM | TGI (OVCAR-3 ovarian): > 100 µM | TGI (OVCAR-4 ovarian): > 83.3 µM | TGI (OVCAR-5 ovarian): > 100 µM | TGI (OVCAR-8 ovarian): > 100 µM | TGI (RPMI-8226 leukemia): > 100 µM | TGI (RXF 393 renal): 59.4 µM | TGI (SF-268 CNS): > 100 µM | TGI (SF-295 CNS): > 100 µM | TGI (SF-539 CNS): > 100 µM | TGI (SK-MEL-2 melanoma): > 100 µM | TGI (SK-MEL-28 melanoma): > 100 µM | TGI (SK-MEL-5 melanoma): > 100 µM | TGI (SK-OV-3 ovarian): > 82.7 µM | TGI (SN12C renal): > 100 µM | TGI (SNB-19 CNS): > 100 µM | TGI (SNB-75 CNS): 69.4 µM | TGI (SNB-78 CNS): > 100 µM | TGI (SR leukemia): > 100 µM | TGI (SW-620 colon): > 100 µM | TGI (TK-10 renal): > 100 µM | TGI (U251 CNS): > 100 µM | TGI (UACC-62 melanoma): > 100 µM | TGI (UO-31 renal): 63.8 µM | TGI (XF 498 CNS): 59.8 µM

CC1(C)CC(/C=C2/OC(=O)c3ccccc32)=C(C(N)=O)C(=O)O1
TGI (786-0 renal): > 100 µM | TGI (A549 NSCLC): > 100 µM | TGI (CAKI-1 renal): > 100 µM | TGI (CCRF-CEM leukemia): > 100 µM | TGI (COLO 205 colon): > 100 µM | TGI (DLD-1 colon): > 100 µM | TGI (DMS 114 small cell lung): > 100 µM | TGI (DMS 273 small cell lung): > 100 µM | TGI (EKVX NSCLC): > 100 µM | TGI (HCC-2998 colon): > 100 µM | TGI (HCT-116 colon): > 100 µM | TGI (HCT-15 colon): > 100 µM | TGI (HOP-62 NSCLC): > 100 µM | TGI (HT29 colon): > 100 µM | TGI (IGROV1 ovarian): > 100 µM | TGI (K-562 leukemia): > 100 µM | TGI (KM12 colon): > 100 µM | TGI (KM20L2 colon): > 100 µM | TGI (LOX IMVI melanoma): > 100 µM | TGI (LXFL 529 NSCLC): > 100 µM | TGI (M14 melanoma): > 100 µM | TGI (M19-MEL melanoma): > 100 µM | TGI (MALME-3M melanoma): > 100 µM | TGI (MOLT-4 leukemia): > 100 µM | TGI (NCI-H226 lung): > 100 µM | TGI (NCI-H23 lung): > 100 µM | TGI (NCI-H460 lung): > 100 µM | TGI (NCI-H522 lung): > 100 µM | TGI (OVCAR-3 ovarian): > 100 µM | TGI (OVCAR-4 ovarian): > 100 µM | TGI (OVCAR-5 ovarian): > 100 µM | TGI (OVCAR-8 ovarian): > 100 µM | TGI (RPMI-8226 leukemia): > 100 µM | TGI (SF-268 CNS): > 100 µM | TGI (SF-295 CNS): > 100 µM | TGI (SF-539 CNS): > 100 µM | TGI (SK-MEL-2 melanoma): > 100 µM | TGI (SK-MEL-28 melanoma): > 100 µM | TGI (SK-MEL-5 melanoma): > 100 µM | TGI (SK-OV-3 ovarian): > 100 µM | TGI (SN12C renal): > 100 µM | TGI (SNB-19 CNS): > 100 µM | TGI (SNB-75 CNS): > 100 µM | TGI (SNB-78 CNS): > 100 µM | TGI (SR leukemia): > 100 µM | TGI (SW-620 colon): > 100 µM | TGI (U251 CNS): > 100 µM | TGI (UACC-257 melanoma): > 100 µM | TGI (UACC-62 melanoma): > 100 µM | TGI (UO-31 renal): > 100 µM | TGI (XF 498 CNS): > 100 µM
